According to patent publication US8859625B2, “Methods to prepare penta-1,4-dien-3-ones and substituted cyclohexanones and derivatives with antitumoral and antiparasitic properties, the compounds and their uses” (Universidade Bandeirante de Sao Paulo-Academia, Paulista …, priority 2006, dated 2014):
Values after ≈ are worked out from the molar mass of the structure shown.

Assays:
B16F10 melanoma = assay: Cell cycle phases by flow cytometry of melanoma dorsal tumors treated for 14 days; assay type: in vivo, C57BL/6J mice; conditions: 15 mg/kg HB-1 diluted in Miglyol 810, intraperitoneal
Description: Determination of Cell Cycle Phases Through Flow Cytometry of Melanoma Dorsal Tumors Treated for 14 Days with the HB-1 Compound by the Intraperitoneal Route.
Aliquots of the tumoral cells suspensions (10^6 cells/mL) for the control group that received Miglyol 810® vehicle and of the animals treated with the HB-1 compound for 14 days by the intraperitoneal route were immediately frozen in citrate (2 mM), sucrose (25 mM), and 0.05% dimethyl sulfoxide (DMSO) buffer, kept in liquid nitrogen up to the moment of use. After sample thawing in an ice bath, the cells were incubated with 375 μL of 0.03 g/L trypsin (Sigma) for 10 minutes, at room temperature, and neutralized with 0.5 g/L trypsin inhibitor (Sigma), 0.1 g/L ribonuclease A (Sigma), and 1.2 g/L spermine (Sigma). The samples were analysed by a flow cytometer (Becton-Dickson) and the percentage of cells was evaluated for the different phases of the cell cycle, apoptosis level (Sub-G1), and DNA content in phase S, quiescent cells (G0/G1), and cells in premytosis (G2/M).

[1] = system: peritoneal normal macrophages; assay: Cytotoxic effect on peritoneal normal macrophages by the MTT method; assay type: cell-based, Balb-C mice; conditions: Mus musculus, Macrophage, diluted in Miglyol 810, 24 hours
Description: Cytotoxic Effect of HB-1 Compound on Peritoneal Normal Macrophages Assessed by the MTT Method.
Peritoneal macrophages were obtained from normal Balb-C mice through the following procedure: abdominal cavities of the animals were opened under sterile conditions under a laminar flow and exposed. A 2 mL volume of saline solution, containing 5000 U frosty heparin (Liquemine-Roche), was injected into the cavity, followed by a massage and collection of the peritoneal wash irrigation liquid, centrifuged at 2000 rpm for 10 minutes at 4° C.
The suspension was resuspended with RPMI-1640 culture medium supplemented with 10% bovine fetal serum, with the count cell number adjusted to 10^6/mL in a Neubauer chamber. Aliquots of the macrophages were cultivated on plates with 96 flat bottom wells, incubated with and without HB-1 compound diluted in Miglyol 810®. After 24 hours, the plates were submitted to the cytotoxic and antiproliferative effect assessment by the MTT calorimetric method.

B16F10 melanoma cells = assay: Cytotoxic and antiproliferative effects by the MTT colorimetric method on B16F10 melanoma cells; assay type: cell-based, murine; conditions: Mus musculus, B16-F10, 24 h, compound diluted in Miglyol 810; 24 hour; from the linear equation; read-out: IC50
Source text: Analysis of Cytotoxic and Antiproliferative Effects of HB-1 Compound and Miglyol 810® as Control by the MTT Colorimetric Method on B16F10 Melanoma Cells.
The colorimetric methodology for the respiratory route of mitochondria MTT (3-(4,5-dimethylthiazol-2-yl)2,5-diphenyl tetrazolium bromide) was used, as described by MOSMANN (1983). This method is based on the reduction of MTT to formazan by living cells. After growth and in vitro confluence of normal and tumoral cells, different concentrations of the HB-1 compound diluted in Miglyol 810® and the diluent-control (Miglyol 810®) have been added on the adhering cells, incubated for 24 hour. After the referred period, 10 μl of MTT (5 mg/mL) were added and incubated for 3 hours in stove with 5% CO2 at 37° C. After this period, the content of the culture plates were centrifuged for 2 minutes at 1800 rpm, at 4° C., the supernatant was removed and 100 μL of dimethyl sulfoxide (DMSO) were added to dissolve formazan crystals previously constituted and precipitated. The absorbances were obtained by an ELISA reader at 540 nm (TiterTek Multiskan) wavelength, with the results obtained shown in FIG. 12.
IC50 Evaluation for B16F10 Melanoma Cells, Obtained from the Linear Equation.

[2] = system: Leishmania (isolate L.C.L.) promastigotes; assay: Promastigote viability by MTT, L.C.L. isolate, Warren medium; assay type: cell-based; conditions: for O.D. (optical density at 595/690 nm, average of duplicates): Warren medium
Description: Viability and/or cellular proliferative assays of promastigote and amastigote forms are also performed by the MTT (diphenyl tetrazolium 3-[4,5-dimethylthiazol-2il]2,5-bromide) method as described by Moreira, et al. (Moreira, M. E. C., Del Portillo, H. A., Milder, R. V., Balanco, J. M. F. and Barcinski, M. A. Heat shock induction of apoptosis in promastigotes of the unicellular organism Leishmania (Leishmania) amazonensis, J. Cell Physiol 167, 305-313, 1996), modified.
After incubation of parasitic forms with the compounds, as described above, for predetermined periods of time for each experiment (24, 48, 72 hours, etc.), an 1.0 mL aliquot of cellular suspension is collected from each culture tube or vial and transferred to microcentrifuge tubes, where they are centrifuged at 14.000 rpm for 3 minutes, the culture medium is aspirated and discharged. To the sedimented cells are add 200 μL of PBS. After that, the volume in PBS of the cellular suspensions is splitted into two wells (duplicates of 100 μL each) of a 96 well culture plate. To each duplicate, […] of MTT (5 mg/mL stock solution, […]) are added. After 1 h or 1 h 30 min, at a temperature of 22° C. (promastigotes) or 34° C. (amastigotes), 100 μL of 10% SDS are added to each well to interrupt the reaction, to lyse the cells and to dissolve the formazan crystals, resulting in an homogeneous blue solution appropriate to the absorbance measure by a spectrophotometer for culture microplates (3550 BIORAD model, Richmond, Calif.), at 595 nm as test wavelength and 690 nm as the reference wavelength.
The optical density (O.D.) values correspond to MTT enzymatic reduction by the metabolic active cells. Consequently, the O.D. is directly proportional to the number of viable cells of the cellular suspension. The progressive increase of O.D. indicates cellular proliferation. Results are expressed as arithmetic average of the optical density duplicates.
This experiment is developed in the Warren medium using an initial inoculum of 2.0×10^6/mL of the medium for the isolates. Cultures were at the day 7^h of passage and at the final exponential phase growth (day 6 of incubation). The results of viability determination for the Leishmania (isolate L.C.L.) promastigotes, incubated in Warren medium and in the presence of HB-1, are shown in the next Table and in FIG. 36. The culture final volume is of 5 mL and the MTT reactions are processed in 1 h and 30 minutes of incubation, beginning with 1.0 mL of culture.

COc1cc(C=CC(=O)C=Cc2ccc(O)c(OC)c2)ccc1O [HB-1, 1,5-Bis-(4-hydroxy-3-methoxy-phenyl)-penta-1,4-dien-3-one]
tumoral cell population in the G0/G1 phase of the cell cycle (B16F10 melanoma): significantly reduces | IC50 [1]: 16.9 µg/mL (≈ 51.8 µM) | IC50 (B16F10 melanoma cells): 7 µg/mL (≈ 21.4 µM) | effect in words ([2]; HB-1 5 μg/mL): partial inhibition of proliferation | O.D. (optical density at 595/690 nm, average of duplicates) ([2]; HB-1 5 μg/mL, 24 hours): 0.489 | O.D. (optical density at 595/690 nm, average of duplicates) ([2]; HB-1 5 μg/mL, 48 hours): 0.452 | O.D. (optical density at 595/690 nm, average of duplicates) ([2]; HB-1 5 μg/mL, 72 hours): 1.346 | O.D. (optical density at 595/690 nm, average of duplicates) ([2]; HB-1 5 μg/mL, 96 hours): 1.834 | effect in words ([2]; HB-1 10 μg/mL): leishmaniostatic effect | O.D. (optical density at 595/690 nm, average of duplicates) ([2]; HB-1 10 μg/mL, 24 hours): 0.177 | O.D. (optical density at 595/690 nm, average of duplicates) ([2]; HB-1 10 μg/mL, 48 hours): 0.153 | O.D. (optical density at 595/690 nm, average of duplicates) ([2]; HB-1 10 μg/mL, 72 hours): 0.176 | O.D. (optical density at 595/690 nm, average of duplicates) ([2]; HB-1 10 μg/mL, 96 hours): 0.187 | effect in words ([2]; HB-1 20 μg/mL): leishmanicide | O.D. (optical density at 595/690 nm, average of duplicates) ([2]; HB-1 20 μg/mL, 24 hours): 0.056 | O.D. (optical density at 595/690 nm, average of duplicates) ([2]; HB-1 20 μg/mL, 48 hours): 0.014 | O.D. (optical density at 595/690 nm, average of duplicates) ([2]; HB-1 20 μg/mL, 72 hours): 0.012 | O.D. (optical density at 595/690 nm, average of duplicates) ([2]; HB-1 20 μg/mL, 96 hours): 0.012
